The results in this text go back to US8940769B2, “Biaryl benzoimidazole derivatives and pharmaceutical composition comprising the same” (Daewoong Pharmaceutical Co., Ltd., priority 2006, dated 2015).

The assay concerns the target T1, human vanilloid receptor VR-1 (hVR1) (Homo sapiens, UniProt Q8NER1).
T1 construct: expressed in transfected cells; host or cells: HEK293 Tet-on cells (hVR1-HEK293), expression induced with doxycycline
The assay is described as follows: Calcium influx test of vanilloid receptor (capsaicin-induced, Fluo-3/AM, hVR1-HEK293 cells). The class given is cell-based. As to conditions: for inhibition at 0.2 µM / Inhibitory effect (%) on calcium influx: single concentration of compound 200 nM, 1 μM capsaicin; for inhibition at 0.2 µM: read-out: Inhibitory effect (%) on calcium influx; for IC50: calcium influx induced by 1 μM capsaicin, read-out: Inhibitory effect IC50 (nM) on calcium influx. The procedure: In order to measure an activity of the biaryl benzoimidazole derivative of the invention as an antagonist, a calcium influx test was performed.
An hVR1-HEK293 cell line is a cell line, in which a Human Embryonic Kidney (HEK) 293 Tet-on cell is transformed with a human vanilloid-1 gene (pTRE2hyg-hVR1, 7.8 kb). The cell line can regulate a VR-1 expression, depending on the administration of a tetracycline analogue, doxycycline. At two days before the calcium influx test, the cell line was cultured in media containing doxycycline to induce the VR-1 expression, and then used. First, the hVR1-HEK293 cells were cultured in T75 flasks to have a density of about 80%, and then detached from the bottom of the flasks by using trypsin. The detached cells were centrifuged and collected. Then, the cells were suspended in media containing 1 μg/mL doxycycline, and diluted to have a concentration of 2×10^5 to 4×10^5 cells/mL. 100 μL of the suspended cells were added to each well of 96-well black plate, cultured at 37° C. and 5% CO2 cell incubator for two days, and then used in the calcium influx test.
The compound was dissolved in dimethyl sulfoxide (DMSO), and then used for the calcium influx test.
In order to measure the calcium influx […], the cells were cultured in a solution containing Fluo-3/AM, which is a calcium indicator, at 37° C. for 90 minutes, so as to be permeated by a fluorescent dye. […] 193 μL D-PBS were added to each well, and then the compound was added thereto in various concentrations. To measure an activity as an antagonist, the cells were treated with 1 μM capsaicin to stimulate the calcium influx. The inhibitory effect of the compound when calcium influx was induced by 1 μM capsaicin was measured depending on its concentration using a fluorescence spectrometer, and the obtained data were substituted into a hill equation to analyze the values.
The inhibitory effect on calcium influx was measured with a single concentration of the compounds of the invention (200 nM), and the result thereof are shown in Table 2.

T1 sequence (Q8NER1 whole entry): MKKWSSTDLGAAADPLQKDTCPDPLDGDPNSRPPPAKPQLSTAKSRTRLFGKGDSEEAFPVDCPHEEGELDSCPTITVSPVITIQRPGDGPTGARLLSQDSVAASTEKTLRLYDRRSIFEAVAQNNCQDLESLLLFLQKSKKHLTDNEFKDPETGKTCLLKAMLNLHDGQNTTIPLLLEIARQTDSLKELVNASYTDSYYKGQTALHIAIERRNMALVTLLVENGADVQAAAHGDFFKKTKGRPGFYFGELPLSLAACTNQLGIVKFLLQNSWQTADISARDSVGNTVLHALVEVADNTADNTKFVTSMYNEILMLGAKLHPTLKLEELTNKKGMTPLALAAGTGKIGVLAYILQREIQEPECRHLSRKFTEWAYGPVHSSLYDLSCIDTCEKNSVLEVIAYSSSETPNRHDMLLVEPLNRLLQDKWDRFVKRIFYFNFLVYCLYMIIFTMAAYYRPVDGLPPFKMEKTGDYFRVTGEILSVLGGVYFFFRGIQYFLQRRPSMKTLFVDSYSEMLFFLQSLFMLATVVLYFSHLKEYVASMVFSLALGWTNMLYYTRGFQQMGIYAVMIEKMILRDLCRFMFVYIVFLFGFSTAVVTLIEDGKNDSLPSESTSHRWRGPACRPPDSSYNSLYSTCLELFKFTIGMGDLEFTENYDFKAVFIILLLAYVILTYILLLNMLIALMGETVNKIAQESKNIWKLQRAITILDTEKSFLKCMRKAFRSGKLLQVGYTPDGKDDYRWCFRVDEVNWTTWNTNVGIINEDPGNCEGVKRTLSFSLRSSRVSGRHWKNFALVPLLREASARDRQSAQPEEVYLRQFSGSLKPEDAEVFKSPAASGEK

For `OCc1cnc(-c2ccc(-c3nc4ccc(N5CCOCC5)cc4[nH]3)cc2)c(Cl)c1` [Compound 26, {5-chloro-6-[4-(6-morpholin-4-yl-1H-benzoimidazol-2-yl)-phenyl]-pyridin-3-yl}-methanol], the inhibition at 0.2 µM worked out at 5%.
On the same count and under the same terms, the result for `CN1CCN(c2ccc3nc(-c4ccc(-c5ncc(CO)cc5Cl)cc4)[nH]c3c2)CC1` [Compound 27, (5-chloro-6-{4-[6-(4-methyl-piperazin-1-yl)-1H-benzoimidazol-2-yl]-phenyl}-pyridin-3-yl)-methanol] reads 4%.
Usually IC50 stands for the concentration at which inhibition is half-maximal. On to `OCc1cnc(-c2ccc(-c3nc4ccc(C(F)(F)F)cc4[nH]3)cc2)c(Cl)c1` [Compound 28, {5-chloro-6-[4-(6-trifluoromethyl-1H-benzoimidazol-2-yl)-phenyl]-pyridin-3-yl}-methanol], for which the IC50 was determined as 181 nM and the inhibition at 0.2 µM is 2.8%.
`OCc1cnc(-c2ccc(-c3nc4ccc(Br)cc4[nH]3)cc2)c(Cl)c1` [Compound 30, {6-[4-(6-bromo-1H-benzoimidazol-2-yl)-phenyl]-5-chloro-pyridin-3-yl}-methanol]: the IC50 turned out to be 171 nM and the inhibition at 0.2 µM is 27.8%.
With `OCc1cnc(-c2ccc(-c3nc4ncc(Br)cc4[nH]3)cc2)c(Cl)c1` [Compound 31, {6-[4-(6-bromo-1H-imidazo[4,5-b]pyridin-2-yl)-phenyl]-5-chloro-pyridin-3-yl}-methanol], the inhibition at 0.2 µM came to 1.7%.
Same read-out and setting: the result for `OCc1cnc(-c2ccc(-c3nc4c(Br)cc(C(F)(F)F)cc4[nH]3)cc2)c(Cl)c1` [Compound 32, {6-[4-(4-bromo-6-trifluoromethyl-1H-benzoimidazol-2-yl)-phenyl]-5-chloro-pyridin-3-yl}-methanol] reads 6%; that for `OCc1cnc(-c2ccc(-c3nc4c(Br)cc(Br)cc4[nH]3)cc2)c(Cl)c1` [Compound 33, {5-chloro-6-[4-(4,6-dibromo-1H-benzoimidazol-2-yl)-phenyl]-pyridin-3-yl}-methanol], 4.7%; that for `FC(F)(F)c1ccc2nc(-c3ccc(-c4ncc(CBr)cc4Cl)cc3)[nH]c2c1` [Compound 34, 2-[4-(5-bromomethyl-3-chloro-pyridin-2-yl)-phenyl]-6-trifluoromethyl-1H-benzoimidazole], 13%.
On the same count and under the same terms, for `CC(C)(C)c1ccc2nc(-c3ccc(-c4ncc(CBr)cc4Cl)cc3)[nH]c2c1` [Compound 35, 2-[4-(5-bromomethyl-3-chloro-pyridin-2-yl)-phenyl]-6-tert-butyl-1H-benzoimidazole] the value was 59.6%; for `Clc1cc(CBr)cnc1-c1ccc(-c2nc3ccc(Br)cc3[nH]2)cc1` [Compound 36, 6-bromo-2-[4-(5-bromomethyl-3-chloro-pyridin-2-yl)-phenyl]-1H-benzoimidazole], 9.6%; for `C=Cc1cnc(-c2ccc(-c3nc4ccc(C(F)(F)F)cc4[nH]3)cc2)c(Cl)c1` [Compound 37, 2-[4-(3-chloro-5-vinyl-pyridin-2-yl)-phenyl]-6-trifluoromethyl-1H-benzoimidazole], 5.3%.
Same read-out and setting: the result for `C=Cc1cnc(-c2ccc(-c3nc4ccc(C(C)(C)C)cc4[nH]3)cc2)c(Cl)c1` [Compound 38, 6-tert-butyl-2-[4-(3-chloro-5-vinyl-pyridin-2-yl)-phenyl]-1H-benzoimidazole] reads 11.7%; that for `C=Cc1cnc(-c2ccc(-c3nc4ccc(Br)cc4[nH]3)cc2)c(Cl)c1` [Compound 39, 6-bromo-2-[4-(3-chloro-5-vinyl-pyridin-2-yl)-phenyl]-1H-benzoimidazole], 3.1%.
Regarding `C=Cc1cnc(-c2ccc(-c3nc4c(Br)cc(C(F)(F)F)cc4[nH]3)cc2)c(Cl)c1` [Compound 41, 4-bromo-2-[4-(3-chloro-5-vinyl-pyridin-2-yl)-phenyl]-6-trifluoromethyl-1H-benzoimidazole], the inhibition at 0.2 µM is -2.1%.
On the same count and under the same terms, the result for `C=Cc1cnc(-c2ccc(-c3nc4ccc(Cl)cc4[nH]3)cc2)c(Cl)c1` [Compound 42, 6-chloro-2-[4-(3-chloro-5-vinyl-pyridin-2-yl)-phenyl]-1H-benzoimidazole] reads 0.9%; that for `O=C(O)c1cnc(-c2ccc(-c3nc4ccc(C(F)(F)F)cc4[nH]3)cc2)c(Cl)c1` [Compound 43, 5-chloro-6-[4-(6-trifluoromethyl-1H-benzoimidazol-2-yl)-phenyl]-nicotinic acid], -3.1%; that for `CC(C)(C)c1ccc2nc(-c3ccc(-c4ncc(C(=O)O)cc4Cl)cc3)[nH]c2c1` [Compound 44, 6-[4-(6-tert-butyl-1H-benzoimidazol-2-yl)-phenyl]-5-chloro-nicotinic acid], -1%.
Same read-out and setting: for `O=C(O)c1cnc(-c2ccc(-c3nc4ccc(Br)cc4[nH]3)cc2)c(Cl)c1` [Compound 45, 6-[4-(6-bromo-1H-benzoimidazol-2-yl)-phenyl]-5-chloro-nicotinic acid] the value was 3.3%; for `O=C(O)c1cnc(-c2ccc(-c3nc4ncc(Br)cc4[nH]3)cc2)c(Cl)c1` [Compound 46, 6-[4-(6-bromo-1H-imidazo[4,5-b]pyridin-2-yl)-phenyl]-5-chloro-nicotinic acid], 7.2%.
With `O=C(O)c1cnc(-c2ccc(-c3nc4c(Br)cc(C(F)(F)F)cc4[nH]3)cc2)c(Cl)c1` [Compound 47, 6-[4-(4-bromo-6-trifluoromethyl-1H-benzoimidazol-2-yl)-phenyl]-5-chloro-nicotinic acid], the inhibition at 0.2 µM was found to be 5.7%.
On the same count and under the same terms, for `COC(=O)c1cnc(-c2ccc(-c3nc4ncc(Br)cc4[nH]3)cc2)c(Cl)c1` [Compound 51, 6-[4-(6-bromo-1H-imidazo[4,5-b]pyridin-2-yl)-phenyl]-5-chloro-nicotinic acid methyl ester] the value was 1.1%.
On the same count and under the same terms, for `COC(=O)c1cnc(-c2ccc(-c3nc4c(Br)cc(C(F)(F)F)cc4[nH]3)cc2)c(Cl)c1` [Compound 52, 6-[4-(4-bromo-6-trifluoromethyl-1H-benzoimidazol-2-yl)-phenyl]-5-chloro-nicotinic acid methyl ester] the value was 20%.
As to `CC(=O)OCc1cnc(-c2ccc(-c3nc4ccc(C(C)(C)C)cc4[nH]3)cc2)c(Cl)c1` [Compound 54, acetic acid 6-[4-(6-tert-butyl-1H-benzoimidazol-2-yl)-phenyl]-5-chloro-pyridin-3-yl methyl ester], the concentration for half-maximal inhibition (IC50) was found to be 319 nM and the inhibition at 0.2 µM stood at 14.6%.
Take `CC(=O)OCc1cnc(-c2ccc(-c3nc4ccc(Br)cc4[nH]3)cc2)c(Cl)c1` [Compound 55, acetic acid 6-[4-(6-bromo-1H-benzoimidazol-2-yl)-phenyl]-5-chloro-pyridin-3-yl methyl ester]: the “Inhibitory effect (%) on calcium influx” value came to 0.9%.
The same measure, in the same setting: the result for `CC(=O)OCc1cnc(-c2ccc(-c3nc4ncc(Br)cc4[nH]3)cc2)c(Cl)c1` [Compound 56, acetic acid 6-[4-(6-bromo-1H-imidazo[4,5-b]pyridin-2-yl)-phenyl]-5-chloro-pyridin-3-yl methyl ester] reads 6.5%.
On the same count and under the same terms, for `CC(=O)OCc1cnc(-c2ccc(-c3nc4c(Br)cc(C(F)(F)F)cc4[nH]3)cc2)c(Cl)c1` [Compound 57, acetic acid 6-[4-(4-bromo-6-trifluoromethyl-1H-benzoimidazol-2-yl)-phenyl]-5-chloro-pyridin-3-yl methyl ester] the value was 16.9%.
